According to patent US20240158392A1 (Janssen Biotech, Inc., priority 2021, published 2024):

Biological target: SIK2 (Homo sapiens, UniProt Q9H0K1)
Assay: SIK2 Enzymatic Assay High Version 2 (High ATP)
Format: biochemical
Details: not given
Procedure, shortened: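 At room temperature, enzyme (6 nM, 2× final) was preincubated with compound for 30 min, then 6 mM ATP and 400 μM HDAC5tide (both 2× final) were added for 2 h. ADP formed was measured by ADP-Glo Max (2 h reagent, 1 h detection) using luminescence.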

Chain of SIK2 (Q9H0K1 whole entry, species assumed): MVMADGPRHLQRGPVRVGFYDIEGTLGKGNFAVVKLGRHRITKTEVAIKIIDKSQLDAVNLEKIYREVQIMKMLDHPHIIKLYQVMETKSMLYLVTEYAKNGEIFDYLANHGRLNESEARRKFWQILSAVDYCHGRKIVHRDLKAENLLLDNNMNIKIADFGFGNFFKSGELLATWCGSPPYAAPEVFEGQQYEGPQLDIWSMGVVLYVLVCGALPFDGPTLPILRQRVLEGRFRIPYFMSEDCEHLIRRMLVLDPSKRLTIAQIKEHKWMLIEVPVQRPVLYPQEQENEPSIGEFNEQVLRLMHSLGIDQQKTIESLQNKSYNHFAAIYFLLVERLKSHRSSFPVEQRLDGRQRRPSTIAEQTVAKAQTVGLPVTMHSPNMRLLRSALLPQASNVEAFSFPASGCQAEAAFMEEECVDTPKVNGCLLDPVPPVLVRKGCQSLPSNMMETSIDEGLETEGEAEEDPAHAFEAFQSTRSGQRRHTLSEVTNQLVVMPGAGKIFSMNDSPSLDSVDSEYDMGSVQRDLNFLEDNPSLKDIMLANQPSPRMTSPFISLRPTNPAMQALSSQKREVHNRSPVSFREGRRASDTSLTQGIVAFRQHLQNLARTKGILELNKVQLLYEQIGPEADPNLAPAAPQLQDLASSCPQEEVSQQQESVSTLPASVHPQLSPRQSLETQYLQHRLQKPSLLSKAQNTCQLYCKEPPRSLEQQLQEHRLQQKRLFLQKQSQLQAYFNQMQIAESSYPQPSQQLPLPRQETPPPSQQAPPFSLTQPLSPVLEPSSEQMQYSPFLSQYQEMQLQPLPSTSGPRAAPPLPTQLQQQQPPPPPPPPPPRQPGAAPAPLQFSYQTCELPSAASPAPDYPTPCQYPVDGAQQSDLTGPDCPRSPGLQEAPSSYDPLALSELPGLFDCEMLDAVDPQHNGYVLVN

Row | SMILES | IC50
1 | Cc1cc(-c2ccn3nc(Nc4ccncn4)cc3c2)c(O[C@H]2C[C@H]3COC[C@@H](C2)N3C)cn1 [Example 420, 5-[2-methyl-5-[[(1R,5S,7s)-9-methyl-3-oxa-9-azabicyclo[3.3.1]nonan-7-yl]oxy]-4-pyridyl]-N-pyrimidin-4-yl-pyrazolo[1,5-a]pyridin-2-amine] | 0.00236 µM
2 | Cc1cc(-c2ccn3nc(Nc4cc(C)nc(C)n4)cc3c2)c(O[C@H]2C[C@H]3COC[C@@H](C2)N3C#N)cn1 [Example 336, (1S,5R)-7-[[4-[2-[(2,6-dimethylpyrimidin-4-yl)amino]pyrazolo[1,5-a]pyridin-5-yl]-6-methyl-3-pyridyl]oxy]-3-oxa-9-azabicyclo[3.3.1]nonane-9-carbonitrile] | < 0.000847 µM
3 | Cc1cc(-c2ccn3nc(NC(=O)C4CC4)cc3c2)c(OC[C@@H]2CCN2C)cn1 [Example 512, N-[5-[2-methyl-5-[[(2S)-1-methylazetidin-2-yl]methoxy]-4-pyridyl]pyrazolo[1,5-a]pyridin-2-yl]cyclopropanecarboxamide] | 0.0347 µM
4 | Cc1cc(-c2ccn3nc(Nc4ccn(C)n4)cc3c2)c(O[C@H]2C[C@H]3COC[C@@H](C2)N3C)cn1 [Example 423, 5-[2-methyl-5-[[(1S,5R,7s)-9-methyl-3-oxa-9-azabicyclo[3.3.1]nonan-7-yl]oxy]-4-pyridyl]-N-(1-methylpyrazol-3-yl)pyrazolo[1,5-a]pyridin-2-amine] | 0.0103 µM
5 | Cc1cc(-c2ccn3nc(Nc4cc(C(F)(F)F)nn4C)cc3c2)c(O[C@H]2C[C@H]3COC[C@@H](C2)N3)cn1 [Example 403, 5-(5-(((1R,5S,7s)-3-oxa-9-azabicyclo[3.3.1]nonan-7-yl)oxy)-2-methylpyridin-4-yl)-N-(1-methyl-3-(trifluoromethyl)-1H-pyrazol-5-yl)pyrazolo[1,5-a]pyridin-2-amine] | 0.0143 µM
6 | Cc1cc(-c2ccn3nc(Nc4cccc(C(F)(F)F)n4)cc3c2)c(O[C@H]2C[C@H]3COC[C@@H](C2)N3)cn1 [Example 366, 5-[2-methyl-5-[[(1S,5R, 7s)-3-oxa-9-azabicyclo[3.3.1]nonan-7-yl]oxy]-4-pyridyl]-N-[6-(trifluoromethyl)-2-pyridyl]pyrazolo[1,5-a]pyridin-2-amine] | 0.00156 µM
7 | Cc1cc(-c2ccn3nc(NC(=O)C4CC4)cc3c2)c(O[C@H]2C[C@@](C)(N)C2)cn1 [Example 517, N-[5-[5-(3-amino-3-methyl-cyclobutoxy)-2-methyl-4-pyridyl]pyrazolo[1,5-a]pyridin-2-yl]cyclopropanecarboxamide] | 0.016 µM

Same assay, conditions: enzyme 6 nM, 6 mM ATP and 400 μM HDAC5tide (each 2× final concentration); 30 minutes pre-incubation, 2 hours; ADP-Glo Max luminescence; read-out: SIK2 high ATP IC50 (μM) (Test Example 2)

Row | SMILES | IC50
8 | Cc1cc(-c2cn3cc(Nc4cncc(C)n4)nc3cn2)c(O[C@H]2CC[C@H](O)CC2)cn1 [Example 657, 4-[[6-methyl-4-[2-[(6-methylpyrazin-2-yl)amino]imidazo[1,2-a]pyrazin-6-yl]-3-pyridyl]oxy]cyclohexanol] | 0.984 µM
9 | Cc1cc(-c2ccn3nc(Nc4cccnn4)cc3c2)c(OC[C@H]2CNCC(C)(C)O2)cn1 (single isomer, unassigned) [Example 516, (*R)-5-[5-[(6,6-dimethylmorpholin-2-yl)methoxy]-2-methyl-4-pyridyl]-N-pyridazin-3-yl-pyrazolo[1,5-a]pyridin-2-amine] | 0.0528 µM
10 | Cc1cc(-c2ccn3nc(Nc4ccc(C5CC5)nn4)cc3c2)c(OC[C@]23C[C@H](CO2)N(C)C3)cn1 [Example 235, N-(6-cyclopropylpyridazin-3-yl)-5-[2-methyl-5-[[(1R,4R)-2-methyl-5-oxa-2-azabicyclo[2.2.1]heptan-4-yl]methoxy]-4-pyridyl]pyrazolo[1,5-a]pyridin-2-amine] | 0.0199 µM
11 | Cn1cc(Nc2cc3cc(-c4cc(OC(F)F)ncc4OCC(C)(C)C#N)ccn3n2)cn1 [Example 692, 3-[[6-(difluoromethoxy)-4-[2-[(1-methylpyrazol-4-yl)amino]pyrazolo[1,5-a]pyridin-5-yl]-3-pyridyl]oxy]-2,2-dimethyl-propanenitrile] | 0.00228 µM
12 | Cc1cc(-c2ccn3nc(Nc4cc(C)nc(C)n4)cc3c2)c(OC[C@H]2CC3(CCCC3)CO2)cn1 (single isomer, unassigned) [Example 258, (*R)—N-(2,6-dimethylpyrimidin-4-yl)-5-[2-methyl-5-(8-oxaspiro[4.4]nonan-7-ylmethoxy)-4-pyridyl]pyrazolo[1,5-a]pyridin-2-amine] | 0.153 µM
13 | Cc1cc(-c2ccn3nc(Nc4ccc5cc[nH]c5n4)cc3c2)c(OCC(C)(C)O)cn1 [Example 240, 2-methyl-1-[[6-methyl-4-[2-(1H-pyrrolo[2,3-b]pyridin-6-ylamino)pyrazolo[1,5-a]pyridin-5-yl]-3-pyridyl]oxy]propan-2-ol] | 0.016 µM
14 | Cc1cc(-c2ccn3nc(NC(=O)C4CC4)cc3c2)c(OCC2(O)CCNC2)cn1 (single isomer, unassigned) [Example 222, (*S)—N-[5-[5-[(3-hydroxypyrrolidin-3-yl)methoxy]-2-methyl-4-pyridyl]pyrazolo[1,5-a]pyridin-2-yl]cyclopropanecarboxamide] | 0.0119 µM
15 | Cc1cc(-c2ccn3nc(Nc4cc(C)nc(C)n4)cc3c2)c(OC[C@@H]2CCS(=O)(=O)C2)cn1 (single isomer, unassigned) [Example 364, (*S)—N-(2,6-dimethylpyrimidin-4-yl)-5-[5-[(1,1-dioxothiolan-3-yl)methoxy]-2-methyl-4-pyridyl]pyrazolo[1,5-a]pyridin-2-amine] | 0.0441 µM
16 | Cc1cc(-c2ccn3nc(NC(=O)C4CC4)cc3c2)c(OCC2(NC3CC3)CCC2)cn1 [Example 157, N-[5-[5-[[1-(cyclopropylamino)cyclobutyl]methoxy]-2-methyl-4-pyridyl]pyrazolo[1,5-a]pyridin-2-yl]cyclopropanecarboxamide] | 0.0708 µM
17 | CC#Cc1cc(-c2ccn3nc(NC(=O)C4CC4)cc3c2)c(O[C@@H]2CNC[C@@H]2F)cn1 [Example 281, N-[5-[5-[(3R,4S)-4-fluoropyrrolidin-3-yl]oxy-2-prop-1-ynyl-4-pyridyl]pyrazolo[1,5-a]pyridin-2-yl]cyclopropanecarboxamide] | 0.00102 µM

The remaining lines, values ahead:

Row | IC50 | SMILES
18 | 0.275 µM | Cc1cc(Nc2cc3cc(-c4cc(OC(F)F)ncc4OCC(C)(N)C(F)(F)F)ccn3n2)nc(C)n1 (single isomer, unassigned) [Example 756, (*S)-5-[5-(2-amino-3,3,3-trifluoro-2-methyl-propoxy)-2-(difluoromethoxy)-4-pyridyl]-N-(2,6-dimethylpyrimidin-4-yl)pyrazolo[1,5-a]pyridin-2-amine]
19 | 0.00845 µM | Cc1cc(-c2ccn3nc(Nc4cnn(C(C)C)c4)cc3c2)c(OC[C@@H]2CNCCO2)cn1 [Example 133, N-(1-isopropylpyrazol-4-yl)-5-[2-methyl-5-[[(2S)-morpholin-2-yl]methoxy]-4-pyridyl]pyrazolo[1,5-a]pyridin-2-amine]
20 | 0.00103 µM | CCN1CC[C@@H](COc2cnc(C#N)cc2-c2ccn3nc(NC(=O)C4CC4)cc3c2)C1 [Example 616, N-[5-[2-cyano-5-[[(3R)-1-ethylpyrrolidin-3-yl]methoxy]-4-pyridyl]pyrazolo[1,5-a]pyridin-2-yl]cyclopropanecarboxamide]
21 | < 0.000847 µM | Cc1cc(Nc2cc3cc(-c4cc(OC(F)F)ncc4OCC(C)(C)C#N)ccn3n2)nc(N)n1 [Example 682, 3-[[4-[2-[(2-amino-6-methyl-pyrimidin-4-yl)amino]pyrazolo[1,5-a]pyridin-5-yl]-6-(difluoromethoxy)-3-pyridyl]oxy]-2,2-dimethyl-propanenitrile]
22 | 0.00832 µM | Cc1cc(-c2ccn3nc(Nc4cc(C)nc(C)n4)cc3c2)c(OC2CCC(S(C)(=O)=O)CC2)cn1 (stereo not shown) [Example 551, N-(2,6-dimethylpyrimidin-4-yl)-5-[2-methyl-5-(4-methylsulfonylcyclohexoxy)-4-pyridyl]pyrazolo[1,5-a]pyridin-2-amine]
23 | 0.00436 µM | CC#Cc1cc(-c2ccn3nc(NC(=O)C4CC4)cc3c2)c(OC[C@@H]2CNCCO2)cn1 [Example 443, N-[5-[5-[[(2S)-morpholin-2-yl]methoxy]-2-prop-1-ynyl-4-pyridyl]pyrazolo[1,5-a]pyridin-2-yl]cyclopropanecarboxamide]
24 | 0.0695 µM | Cc1cc(-c2ccn3nc(Nc4cc(C)nc(C)n4)cc3c2)c(OC[C@H](O)C2CC2)cn1 [Example 558, (1R)-1-cyclopropyl-2-[[4-[2-[(2,6-dimethylpyrimidin-4-yl)amino]pyrazolo[1,5-a]pyridin-5-yl]-6-methyl-3-pyridyl]oxy]ethanol]
25 | 0.0195 µM | Cc1cc(-c2ccn3nc(NC(=O)C4CC4)cc3c2)c(OC[C@@H](O)C2CCCCC2)cn1 (single isomer, unassigned) [Example 197, (*S)—N-(5-(5-(2-cyclohexyl-2-hydroxyethoxy)-2-methylpyridin-4-yl)pyrazolo[1,5-a]pyridin-2-yl)cyclopropanecarboxamide]
26 | 0.0271 µM | Cc1cc(-c2ccn3nc(Nc4cc(C)nc(C)n4)cc3c2)c(OCC(C)(C)N)cn1 [Example 359, 5-[5-(2-amino-2-methyl-propoxy)-2-methyl-4-pyridyl]-N-(2,6-dimethylpyrimidin-4-yl)pyrazolo[1,5-a]pyridin-2-amine]
27 | 0.0953 µM | Cc1cc(Nc2cc3cc(-c4cc(OCC(F)(F)F)ncc4O[C@H]4CC[C@H](O)CC4)ccn3n2)nc(C)n1 [Example 664, 4-[[4-[2-[(2,6-dimethylpyrimidin-4-yl)amino]pyrazolo[1,5-a]pyridin-5-yl]-6-(2,2,2-trifluoroethoxy)-3-pyridyl]oxy]cyclohexanol]
28 | 0.0922 µM | Cc1cc(-c2ccn3nc(Nc4cc(C)nc(C)n4)cc3c2)c(OC[C@]2(O)CCCOC2)cn1 (single isomer, unassigned) [Example 608, (*S)-3-[[4-[2-[(2,6-dimethylpyrimidin-4-yl)amino]pyrazolo[1,5-a]pyridin-5-yl]-6-methyl-3-pyridyl]oxymethyl]tetrahydropyran-3-ol]
